Like-named read-outs stand apart in the source and are kept apart here. Marks after values point to notes of the source that are not given here.
Key:
[1] = target: T1, AChE (Electrophorus electricus, UniProt O42275); test: AChE inhibition, Ellman's method; type: biochemical, Electrophorus electricus (electric eel)
T1 construct: purchased Sigma-Aldrich Química S. A
Text: (§1) Acetylcholinesterase (AChE) from Electrophorus electricus (electric eel), butyrylcholinesterase (BChE) and acetylthiocholine iodide (ATCI), butyrylthiocholine iodide (BTCI), 5,5′-dithiobis-(2-nitrobenzoate) (DTNB), (4,5-dimethylthiazol-2-yl)-2,5-diphenyl tetrazolium (MTT) bromide and Dulbecco's modified Eagle's medium (DMEM) with 4.5 g/L glucose were obtained from Sigma-Aldrich Química S. A. Reagents used in cell culture, including nonessential amino acids (NEAA), heat inactivated fetal bovine serum (FBS), 0.05% trypsin/1 mM EDTA, antibiotic (10000 U/mL penicillin, 10,000 μg/mL streptomycin) and Hank's balanced salt solution (HBSS) were purchased from Gibco Laboratories. Dimethylsulfoxide (DMSO-d6), absolute ethanol and acetic acid were obtained from Merck. All reagents were of analytical grade or of the highest grade available.
(§2) Briefly, 100 μL of sodium phosphate buffer, 40 μL of DTNB, 20 μL of the test compounds/standard inhibitors and 20 μL of AChE or BChE were incubated for 5 min at 30°C in a 96-well microplate (BRANDplates, pureGradeTM, BRAND GMBH, Wertheim, Germany). After that, 20 μL of ATCI or BTCI was added, respectively. […] A control using 20 μL of sodium phosphate buffer instead of compound solution was also performed. The IC50 values were determined in triplicate from the dose-response inhibition curves and are expressed as mean ± standard deviation (SD).
(§3) ATCI and BTCI were used as substrates for AChE or BChE, respectively, generating thiocholine and acetate or butyrate.

[2] = target: T2, BChE (Homo sapiens, UniProt P06276); test: biochemical
T2 construct: purchased Sigma-Aldrich Química S. A
Text: as §1, §2, §3

[3] = system: SH-SY5Y cells; test: Cytotoxicity in differentiated SH-SY5Y cells (MTT reduction); type: cell-based, human; conditions: 24 h; for cellular metabolic activity (MTT reduction), cytotoxicity: differentiated SH-SY5Y, 1, 10 and 50 μM
Procedure: SH-SY5Y (ATCC, Manassas, VA, USA), a neuroblastoma cell line, was routinely cultured in 75-cm^2 flasks (Corning Costar, Corning, NY, USA) using DMEM with 4.5 g/L glucose, supplemented with 10% heat-inactivated FBS (v/v), 1% NEAA (v/v), 100 U/mL penicillin, and 100 μg/mL streptomycin. The cells used for all the experiments were taken between the 37th and 45th passages, to avoid phenotypic changes. […] Three days after seeding, the medium of cells was changed, adding cell culture medium with 0.1% of TPA for more 3 days before treatment.
(§4) The cytotoxicity profile of the compounds under study was evaluated in differentiated SH-SY5Y cells (8,000 cells/well), according the differentiation protocol previously described, and in HepG2 cells (2.5 × 10^4 cells/well), seeded into 96-well plates. […]. In both assays, the reduction of MTT tetrazolium salt or resazurin to MTT formazan or resorufin, respectively, by cellular dehydrogenases present in viable cells, gives insights on cell metabolic activity.
For the MTT assay, the cell culture medium was removed after the incubation time, followed by the addition of fresh cell culture medium containing 0.5 mg/mL MTT and incubation for 30 min. After this incubation period, the cell culture medium was removed, and the formed formazan crystals dissolved in DMSO. The absorbance was measured at 550 nm in a multi-well plate reader (BioTek Instruments, Vermont, USA). The percentage of MTT reduction relative to that of the control cells was used as the cytotoxicity measure [MTT reduction (% of control)] as means ± SEM of four independent experiments.

[4] = system: HepG2 cells; test: Cytotoxicity in HepG2 cells (resazurin reduction); type: cell-based, human; conditions: 48 h; for cellular metabolic activity (resazurin reduction), cytotoxicity: HepG2, 1, 10 and 50 μM
Procedure: Human hepatocellular carcinoma cells (HepG2, ECACC, UK) were also used in this study. Cells were cultured in low-glucose medium (5 mM) composed by Dulbecco's modified Eagle's medium (DMEM, D5030) supplemented with sodium pyruvate (0.11 g/L), sodium bicarbonate (3.7 g/L), HEPES (1.19 g/L), 6 mM glutamine and 10% fetal bovine serum (FBS) and 1% of antibiotic penicillin-streptomycin 100 × solution. HepG2 (2.5 × 10^4 cells/well) cells were seeded in a 96-well plate and proliferate for 24 h before treatment.
as §4
Regarding the resazurin reduction assay, after the incubation time, the medium was replaced by fresh medium containing resazurin (10 μg/mL) prepared in sterile PBS (1X) and left to react for 1 h. The fluorescent signal was monitored using a 540 nm excitation wavelength and 590 nm emission wavelength in a Cytation 3 reader (BioTek Instruments Inc., USA). The percentage of resazurin reduction relative to that of the control cells was used as the cytotoxicity measure [resazurin reduction (% of control)] as means ± SEM of four independent experiments.

[5] = system: SH-SY5Y cells; test: Neuroprotection against Aβ1–42 peptide-induced cytotoxicity (resazurin reduction); conditions: for neuroprotective effect against Aβ1–42 peptide-induced cytotoxicity: 10 μM pre-treatment 24 h, then Aβ1–42 25 μM 48 h
Procedure: The antioxidant efficiency of the new HBAc derivatives was evaluated in the presence of Aβ1–42 peptide. […] Aβ1–42 aliquots were then stored at −20°C until use (enriched oligomeric Aβ1–42 preparation).
Undifferentiated SH-SY5Y cells were seeded onto 96-well plates (8000 cells/well) and differentiated as previously described. […] After incubation time, cellular metabolic activity was determined using the resazurin reduction assay as previously described.
Aβ aggregation, the pathological hallmark of AD, is the most targeted biomarker in drug discovery and development for AD.

[6] = target: T2, BChE; test: BChE-inhibitor kinetics (Lineweaver-Burk and Dixon plots); type: biochemical
Procedure: (§5) To evaluate the mechanism of AChE and BChE inhibition of the most promising compounds substrate-dependent kinetic experiments were performed. […] The results are presented as double reciprocal Lineweaver-Burk plots (1/V vs. 1/[S]). The kinetic data, namely Km and Vmax, were acquired employing Michaelis-Menten equation. The Ki values were estimated using Dixon plots, by replotting the slope of each Lineweaver-Burk plot vs. the inhibitor concentration. In the Dixon plots, the Ki value was obtained from the x-axis intercept (–Ki). The enzymatic reactions and measurements were performed using the same AChE and BChE assay conditions as described above (determined in triplicate). Linear regression analysis was performed using GraphPad Prism 5.0 (GraphPad Software, Inc.).
(§6) In order to understand the AChE and BChE inhibitory mechanism of the most promising ChE inhibitors, kinetic experiments were performed. […] Graphical analysis of the reciprocal Lineweaver–Burk plots was used to determine Michaelis-Menten reaction kinetic parameters (Km and Vmax).

[7] = mean ± SD; ref Teixeira et al. ([2017a]); cited from earlier work
[8] = mean ± SD; ref Teixeira et al. ([2017a]); cited from earlier work; remark: listed apart in the source
[9] = ref Teixeira et al. ([2017a]); cited from earlier work
[10] = DPPH radical scavenging assay; conditions: mean ± SD, triplicate
Procedure: (§7) The IC50 values were determined in triplicate from the dose-response inhibition curves and are expressed as mean ± standard deviation (SD).

[11] = ABTS radical cation scavenging assay; conditions: mean ± SD, triplicate
Procedure: as §7

[12] = Redox properties by differential pulse and cyclic voltammetry; type: physicochemical; conditions: physiological pH 7.4, differential pulse voltammetry, glassy carbon electrode
Procedure: Voltammetric studies were performed using an Autolab PGSTAT12 potentiostat/galvanostat (Metrohm Autolab, Netherland) and a one-compartment glass electrochemical cell.

[13] = target: T1, AChE; test: AChE-inhibitor kinetics (Lineweaver-Burk and Dixon plots); type: biochemical, Electrophorus electricus (electric eel)
Procedure: as §5, §6

[14] = mean ± SD, triplicate, 30°C, read-out: IC50 BChE
[15] = Lineweaver-Burk plots, Vmax decreased, Km unchanged

T2 sequence (P06276 29-602, species assumed): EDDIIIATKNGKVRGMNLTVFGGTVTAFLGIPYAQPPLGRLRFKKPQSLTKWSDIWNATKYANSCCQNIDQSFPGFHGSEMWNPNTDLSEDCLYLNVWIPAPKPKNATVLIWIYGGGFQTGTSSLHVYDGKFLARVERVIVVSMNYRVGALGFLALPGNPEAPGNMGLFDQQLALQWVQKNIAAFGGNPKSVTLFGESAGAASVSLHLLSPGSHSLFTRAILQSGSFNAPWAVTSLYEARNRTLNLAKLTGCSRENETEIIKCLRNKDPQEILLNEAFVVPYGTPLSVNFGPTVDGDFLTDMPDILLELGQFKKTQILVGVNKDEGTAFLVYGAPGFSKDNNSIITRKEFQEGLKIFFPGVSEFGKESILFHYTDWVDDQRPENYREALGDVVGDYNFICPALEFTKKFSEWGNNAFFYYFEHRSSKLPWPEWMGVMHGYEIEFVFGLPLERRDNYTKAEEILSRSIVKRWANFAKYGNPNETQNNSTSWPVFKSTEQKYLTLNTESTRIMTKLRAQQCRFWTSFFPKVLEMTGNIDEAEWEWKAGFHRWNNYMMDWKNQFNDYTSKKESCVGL
T1 sequence (O42275 24-633): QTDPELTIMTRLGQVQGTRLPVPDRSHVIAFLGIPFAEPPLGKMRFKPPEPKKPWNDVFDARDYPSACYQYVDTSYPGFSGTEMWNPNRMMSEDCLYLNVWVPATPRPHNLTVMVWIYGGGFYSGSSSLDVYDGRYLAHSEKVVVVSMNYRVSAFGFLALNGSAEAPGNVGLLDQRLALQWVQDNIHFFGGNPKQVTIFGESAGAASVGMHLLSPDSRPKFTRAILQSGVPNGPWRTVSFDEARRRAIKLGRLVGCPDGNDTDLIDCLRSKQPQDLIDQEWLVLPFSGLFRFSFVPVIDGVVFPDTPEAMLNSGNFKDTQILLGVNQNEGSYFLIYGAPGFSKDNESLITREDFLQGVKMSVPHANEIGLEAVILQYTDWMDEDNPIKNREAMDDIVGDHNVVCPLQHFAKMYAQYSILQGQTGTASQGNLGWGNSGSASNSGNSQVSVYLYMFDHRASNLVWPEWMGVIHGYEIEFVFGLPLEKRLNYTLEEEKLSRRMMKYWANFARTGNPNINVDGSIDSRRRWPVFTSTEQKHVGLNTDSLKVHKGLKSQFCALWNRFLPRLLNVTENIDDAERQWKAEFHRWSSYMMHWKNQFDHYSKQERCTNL

Row | Compound | IC50 [1] | SI: BChE selectivity index = IC50(AChE)/IC50(BChE) [2] | cellular metabolic activity (MTT reduction), cytotoxicity [3] | cellular metabolic activity (resazurin reduction), cytotoxicity [4] | neuroprotective effect against Aβ1–42 peptide-induced cytotoxicity [5] | IC50 [10] | IC50 [11] | IC50 [2] | Ep (oxidation potential) [12] | further results
1 | O=C(NCCCCCC[P+](c1ccccc1)(c1ccccc1)c1ccccc1)c1ccc(O)c(O)c1 [AntiOxBEN1] | > 50 µM | > 588 | dose-dependent toxicity | dose-dependent toxicity | significantly prevented Aβ1–42 peptide-induced dysfunction/cell death |  |  |  |  | effect on AChE ([1]; at 50 μM): did not have any effect; IC50 [2, 14]: 0.085 ± 0.005 µM; Ki [6]: 0.0295 µM; BChE inhibition mechanism [6, 15]: non-competitive; IC50 [7]: 31 ± 0.8 µM; IC50 [8]: 20.7 ± 0.8 µM; Ep (oxidation potential) [9]: 219^* mV
2 | O=C(NCCCCCC[P+](c1ccccc1)(c1ccccc1)c1ccccc1)c1cc(O)c(O)c(O)c1 [AntiOxBEN2] | 40.5 ± 7 µM | 86 | did not alter cellular metabolic activity | did not alter cellular metabolic activity | more evident |  |  |  |  | IC50 [2, 14]: 0.474 ± 0.017 µM; IC50 [7]: 14 ± 0.3 µM; IC50 [8]: 6.5 ± 0.5 µM; Ep (oxidation potential) [9]: 115^* mV
3 | O=C(NCCCCCCCC[P+](c1ccccc1)(c1ccccc1)c1ccccc1)c1ccc(O)c(O)c1.[Br-] [Compound 15, (8-(3,4-Dihydroxybenzamido)octyl)triphenylphosphonium bromide] | 11.2 ± 0.8 µM | 106 | dose-dependent toxicity | dose-dependent toxicity |  | 31.2 ± 0.9 µM | 23.5 ± 1.3 µM | 0.106 ± 0.005 µM | 216 mV | 
4 | O=C(NCCCCCCCC[P+](c1ccccc1)(c1ccccc1)c1ccccc1)c1cc(O)c(O)c(O)c1.[Br-] [Compound 16, (8-(3,4,5-Trihydroxybenzamido)octyl)triphenylphosphonium bromide] | 15.7 ± 0.9 µM | 62 | did not alter cellular metabolic activity | did not alter cellular metabolic activity | more evident | 16.8 ± 1.6 µM | 6.8 ± 0.6 µM | 0.255 ± 0.009 µM | 121 mV | 
5 | O=C(NCCCCCCCCCC[P+](c1ccccc1)(c1ccccc1)c1ccccc1)c1ccc(O)c(O)c1.[Br-] [Compound 17, (10-(3,4-Dihydroxybenzamido)decyl)triphenylphosphonium bromide] | 7.7 ± 0.4 µM |  | dose-dependent toxicity | dose-dependent toxicity | more evident | 31 ± 0.6 µM | 19.4 ± 1 µM | 0.195 ± 0.02 µM | 210 mV | 
6 | O=C(NCCCCCCCCCC[P+](c1ccccc1)(c1ccccc1)c1ccccc1)c1cc(O)c(O)c(O)c1.[Br-] [Compound 18, (10-(3,4,5-Trihydroxybenzamido)decyl)triphenylphosphonium bromide] | 7.2 ± 0.5 µM | 13 | did not alter cellular metabolic activity | did not alter cellular metabolic activity | significantly prevented Aβ1–42 peptide-induced dysfunction/cell death | 10.2 ± 1.1 µM | 7.4 ± 0.5 µM | 0.553 ± 0.022 µM | 114 mV | cellular metabolic activity (MTT reduction) ([3]; SH-SY5Y, 1 and 10 μM): slightly increased; cellular metabolic activity (resazurin reduction) ([4]; HepG2, 10 and 50 μM): slightly increased; Ki [13]: 6.6 µM; AChE inhibition mechanism [13, 15]: non-competitive
7 | Aβ1–42 [reference compound] |  |  |  |  |  |  |  |  |  | decrease of cell viability compared to control ([5]; Aβ1–42 peptide 25 μM, 48 h, resazurin): about 28%

— PMC5924788 (Frontiers in Chemistry, 2018)
